The results in this text go back to ChEMBL document CHEMBL1201862, “PubChem BioAssay data set” (2004).

Common to all, as to experiment: NCI anticancer screen, dose series, 48 h
For experiment [1], the system named is HCC 2998.
In experiment [2] the test system is MOLT-4.
Experiment [3] relates to M14.
The subject of experiment [4] is HOP-62.
For experiment [5], the system named is OVCAR-3.
For experiment [6], the system named is IGROV-1.
The subject of experiment [7] is SF-268.
For experiment [8], the system named is UACC-257.
For experiment [9], the system named is SK-MEL-28.
Experiment [10] has as its system A549.
Experiment [11] deals with RPMI-8226.
In experiment [12] the test system is UACC-62.
The subject of experiment [13] is K562.
In experiment [14] the test system is OVCAR-5.
The subject of experiment [15] is A498.

The structures appear in SMILES notation.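 The compound was tested at five concentrations on cells cultured in 96-well plates, with a 48-hour exposure period. Abbreviation: GI50, concentration required for 50% inhibition of growth.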 Activity calls are given as the source filed them. Rule as the data show it: active = GI50 up to about 1.1 µM and inactive = higher.

Consider `O=C(c1ccccc1)c1nc2ccc(Cl)cc2c2c1Cc1ccccc1-2`, for which the GI50 in experiment [1], in experiment [2], in [3], in experiment [4], in [5] and in [6] was > 100 µM (inactive) in each case. Besides, the GI50 in [7], in experiment [8], in [9], in [10], in experiment [11] and in [12] was > 100 µM (inactive) in each case. The GI50 in [13] and in experiment [14] was > 100 µM (inactive) in each case.

On to `C#CC(C)(C)Oc1cc(O)c2c(=O)c3ccccc3n(C)c2c1`, for which the GI50 is 77.4 µM (inactive) in experiment [1]; > 100 µM (inactive) in [2]; > 100 µM (inactive) in [3]; 94 µM (inactive) in experiment [4]; > 100 µM (inactive) in experiment [5]; > 100 µM (inactive) in experiment [6]. The GI50 in experiment [7], in [8], in experiment [15], in experiment [9], in [10] and in experiment [12] was > 100 µM (inactive) each time. In addition, the GI50 in [13] and in experiment [14] was > 100 µM (inactive) each time.

Take `CCCCOC(=O)NC(=O)c1cn(CCCOC(=O)CCCCCCCCC(=O)OCCCn2cc(C(=O)NC(=O)OCCCC)c(=O)[nH]c2=O)c(=O)[nH]c1=O`: the GI50 in [1], in experiment [2], in experiment [3], in experiment [4], in experiment [5] and in experiment [6] was > 100 µM (inactive) in each case. Besides, the GI50 in experiment [7], in [8], in [9], in [10], in [11] and in experiment [12] was > 100 µM (inactive) in each case. The GI50 in [13] and in experiment [14] was > 100 µM (inactive) each time.

As for `O=[N+]([O-])c1ccc(N=P(c2ccccc2)(c2ccccc2)c2ccccc2)n2nnnc12`, the GI50 in [2] was 77.8 µM (inactive); in experiment [3], > 100 µM (inactive); in [4] it was 25.6 µM (inactive); in experiment [5], 34.5 µM (inactive); in experiment [6], > 100 µM (inactive); in experiment [7], 36.1 µM (inactive). In addition, the GI50 is 85.9 µM (inactive) in experiment [8]; > 100 µM (inactive) in [15]; > 100 µM (inactive) in experiment [9]; 40.6 µM (inactive) in experiment [10]; 35.7 µM (inactive) in experiment [11]; 37.3 µM (inactive) in experiment [12]. For the same compound, the GI50 in experiment [13] is 67 µM (inactive); in experiment [14] it was > 100 µM (inactive).

As to `Cc1ccc(S(=O)(=O)NC(=O)C#CCOC2CCCCO2)cc1` (centres undefined), the GI50 in experiment [1], in [2], in experiment [3], in experiment [5], in experiment [8] and in experiment [15] was > 100 µM (inactive) in each case. The GI50 in experiment [9], in [10], in experiment [11], in experiment [12], in experiment [13] and in [14] was > 100 µM (inactive) throughout.

Consider `C=C1CC2OC(=O)C(=C)C2C(O)C2C(=C)CCC12` (centres undefined), for which the GI50 is 10.2 µM (inactive) in experiment [1]; 2.75 µM (inactive) in experiment [2]; 10.1 µM (inactive) in [5]; 17.7 µM (inactive) in [6]; 16.7 µM (inactive) in [7]; 4.2 µM (inactive) in [8]. Also, the GI50 in experiment [15] is 0.31 µM (active); in [9], 7.28 µM (inactive); in [10] it was 14.4 µM (inactive); in experiment [11], 2.81 µM (inactive); in [12], 3.48 µM (inactive); in [13], 3.47 µM (inactive). Moreover, the GI50 in [14] is 12.3 µM (inactive).

Regarding `O=C(Nc1ccccc1C(=O)NC(=O)c1ccccc1NC(=O)c1ccccc1)c1ccccc1`, the GI50 in experiment [4] is 12.4 µM (inactive); in experiment [5] it was 3.29 µM (inactive); in [6], 1.86 µM (inactive); in experiment [7], 6.85 µM (inactive); in experiment [8], 1.86 µM (inactive); in experiment [15], 15.1 µM (inactive). In addition, the GI50 in experiment [9] was 3.13 µM (inactive); in experiment [10] it was 7.53 µM (inactive); in experiment [11], 1.46 µM (inactive); in experiment [12] it was 2.07 µM (inactive); in experiment [13], 4.83 µM (inactive); in experiment [14] it was 3.6 µM (inactive).

In the case of `COc1ccccc1NC(=O)NS(=O)(=O)c1ccccc1`, the GI50 in experiment [1] is > 100 µM (inactive); in [3], > 100 µM (inactive); in [4], 69.2 µM (inactive); in experiment [7], > 100 µM (inactive); in [8], > 100 µM (inactive); in experiment [9] it was > 100 µM (inactive). Moreover, the GI50 in experiment [10] and in experiment [14] was > 100 µM (inactive) each time.

`COC(=O)C(=C/c1ccc(OC)cc1)/C(C(=O)O)=C(/C)c1ccccc1`: the GI50 in experiment [1], in experiment [2], in [3], in [4], in [5] and in experiment [6] was > 100 µM (inactive) each time. Moreover, the GI50 in [8], in experiment [15], in experiment [10], in experiment [11], in [12] and in experiment [13] was > 100 µM (inactive) each time. Besides, the GI50 in [14] is > 100 µM (inactive).

Take `COc1ccc2c(c1)[n+]([O-])c(/C(C)=N/NC(=O)c1ccccc1O)c(C)[n+]2[O-]`: the GI50 in [1], in experiment [2], in experiment [3], in experiment [4], in experiment [5] and in [6] was > 100 µM (inactive) throughout. The GI50 in [7], in [8], in experiment [9], in experiment [10], in experiment [11] and in experiment [12] was > 100 µM (inactive) throughout. Besides, the GI50 in [13] and in experiment [14] was > 100 µM (inactive) each time.

As for `COc1cc(Nc2cnc3cc(C(F)(F)F)ccc3n2)cc(OC)c1OC`, the GI50 in experiment [1], in experiment [2], in experiment [4], in experiment [5], in experiment [7] and in experiment [8] was > 100 µM (inactive) in each case. Moreover, the GI50 in [9], in experiment [10], in [11], in experiment [12] and in experiment [14] was > 100 µM (inactive) in each case.
